The experiment has as its system brain receptors (3H-diazepam binding). Put plainly: Inhibition of the binding of 3H-diazepam to the brain receptors (rat frontal cortex P2-synaptosomal fraction). More on the design: species or system male albino rats of the Wistar strain. Conditions: 3H-diazepam 1.5 nM, pH 7.4, 20 minutes in ice; for % Inhibition of Diazepam Binding: test concentration not given; for pIC50: inhibition of 3H-diazepam binding. From the text:
A test used to measure anxiolytic activity comprises measurement of the ability of test compounds to inhibit the binding of ^3 H-diazepam to the brain receptors of warm-blooded animals. The test is described by R. F. Squires in Nature, 266, No. 21, page 732 (April 1977). The animals used were male albino rats of the Wistar strain, weighing 150-200 g. each from Royalhart Farms. Diazepam (methyl-^3 H) was obtained from New England Nuclear. The test compounds were solubilized in either dimethylformamide, acetic acid, ethanol or hydrochloric acid. The frontal cortex of rats was homogenized gently in 20 volumes of ice-cold 0.32 M. sucrose, centrifuged twice at 1000 g. for 10 minutes and then recentrifuged at 30,000 g. for 20 minutes to produce a crude P2 -synaptosomal fraction. The P2 -fraction was rehomogenised, twice the original volume, in hypotonic 50 mM. Tris.HCl (pH 7.4). The binding assay consisted of 300 .parallel.l. of the P2 -fraction suspension (0.350 mg.), 100 .parallel.l. of test drug and 100 μl. of ^3 H-diazepam (1.5 nM.), which was added to 1.5 ml. of 50 mM. Tris.HCl (pH 7.4). Non-specific binding controls and total binding controls received 100 μl. of diazepam (3 μm.) and 100 μl. of deionized water, respectively, in place of the test compound. Incubation for 20 minutes proceeded in ice and was terminated by filtration, under vacuum, through Whatman GF/C glass fiber filters. The filters were washed twice with 5 ml. of ice-cold 50 mM. Tris.HCl (pH 7.4) and placed in scintillation vials. After drying at 50°-60° C. for 30 minutes, 10 ml. of Beckman Ready-Solve HP was added and the radioactivity determined in a Beckman Scintillation Counter.

pIC50: −log10 of the molar value.

The term pIC50 denotes −log10 of the IC50, conventionally taken in molar units. High values mean a small IC50, low ones a large IC50.

For the molecule `c1ccc2nc3c(nc2c1)OCC1CCCN31` (single isomer, unassigned) [2,3,3a,4-Tetrahydro-1H-pyrrolo[1',2':4,5][1,4]oxazino[2,3-b]quinoxaline], the “% Inhibition of Diazepam Binding” value is recorded as 87% and the pIC50 is 7.06.

Turning to `FC(F)(F)c1ccc2nc3c(nc2c1)OCC1CCCCN31` (stereo not shown) [1,2,3,4,4a,5-Hexahydro-9-trifluoromethylpyrido[1',2':4,5][1,4]oxazino[2,3-b]quinoxaline], the “% Inhibition of Diazepam Binding” value is 90% and the pIC50 was 6.45.

Regarding `O=[N+]([O-])c1cccc2nc3c(nc12)N1CCCCC1CO3` (stereo not shown) [1,2,3,4,4a,5-hexahydro-11-nitropyrido[1',2':4,5][1,4]oxazino[2,3-b]quinoxaline], the “% Inhibition of Diazepam Binding” value worked out at 72% and the pIC50 was 6.68.

Regarding `Nc1ccc2nc3c(nc2c1)OCC1CCCCN31` (stereo not shown) [9-Amino-1,2,3,4,4a,5-hexahydropyrido[1',2':4,5][1,4]oxazino[2,3-b]quinoxaline], the “% Inhibition of Diazepam Binding” value is given as 93% and the pIC50 was 7.41.

As to `Clc1ccc2nc3c(nc2c1)OCC1CCCCN31` (stereo not shown) [9-Chloro-1,2,3,4,4a,5-hexahydropyrido[1',2':4,5][1,4]oxazino[2,3-b]quinoxaline], the “% Inhibition of Diazepam Binding” value was found to be 97% and the pIC50 is 7.85.

On to `Clc1ccc2nc3c(nc2c1)N1CCCCC1CO3` (stereo not shown) [10-chloro-1,2,3,4,4a,5-hexahydropyrido[1',2':4,5][1,4]oxazino[2,3-b]quinoxaline], for which the “% Inhibition of Diazepam Binding” value is given as 95% and the pIC50 is 7.66.

Regarding `Nc1cccc2nc3c(nc12)N1CCCCC1CO3` (stereo not shown) [11-Amino-1,2,3,4,4a,5-hexahydropyrido[1',2':4,5][1,4]oxazino[2,3-b]quinoxaline], the “% Inhibition of Diazepam Binding” value was 98% and the pIC50 was 7.70.

In the case of `CN(C)C=Nc1cccc2nc3c(nc12)N1CCCCC1CO3` (stereo not shown) [N'-(1,2,3,4,4a,5-hexahydropyrido[1',2':4,5][1,4]oxazino[2,3-b]quinoxalin-11-yl)-N,N-dimethylformamidine], the “% Inhibition of Diazepam Binding” value is on record as 96% and the pIC50 is 7.26.

The values above are taken from US4200748A, “Pyrido[1',2':4,5][1,4]oxazino[2,3-b]quinoxalines and pyrrolo[1',2':4,5][1,4]oxazino[2,3-b]quinoxalines” (American Cyanamid Company, priority 1979, dated 1980).
